Reference: patent US7659293B2, “α-Amino-N-hydroxy-acetamide derivatives” (Novartis AG, priority 2001, dated 2010)
Where a name gives a salt, the structure may show the parent alone.

Target: T1, MT1-MMP (Homo sapiens, UniProt P50281)
T1 construct: initiator Met (ATG start codon from NdeI site) (N); made in house
Experiment: MT1-MMP fluorogenic substrate inhibition assay
Type: biochemical
Details: mean ± SEM of three independent experiments
Protocol: The inhibitory activities of compounds of formula I on MT1-MMP, MMP1 (collagenase 1) and MMP2 (gelatinase A) can be determined as follows:
Stock solutions of substrate (MCA-Pro-Leu-Gly-Leu-Dpa-Ala-Arg-NH2 (SEQ ID NO: 1), C. G. Knight, et al, FEBS lett., 296, 263-266, (1992)), are prepared in 100% DMSO at a concentration 1.0 mM.
Stock solutions of inhibitors are prepared in 100% DMSO. The inhibitor is diluted into the assays from a solution in 100% DMSO, and controls substitute an equal volume of DMSO so that the final DMSO concentration from inhibitor and substrate dilutions in all assays is 6.0%. Assays are performed in assay buffer (150 mM NaCl, 10 mM CaCl2, 50 mM Tris-Cl pH7.5, 0.05% Brij-35) containing 6.0% DMSO once the substrate and inhibitor are diluted into it. […] The fluorescence changes are monitored using an excitation wavelength of 320 nm and an emission wavelength of 340 nm. […] The reaction mixture is preincubated with the inhibitor for 30 min, the reaction is started by the addition of MMP enzyme and the fluorescence intensity is measured for 10 min. […]
Expression and Purification: The subcloned CD-MT1-MMP is used to transfect E. coli strain BL21[DE3] (Hanahan, D. J. Mol. Biol. 1983; 166(4):557-80) and expressed as insoluble inclusion body materials. […] Fractions of 1 ml are collected and […] aliquots are analyzed by immunoblotting. […]

IC50: 4.67 ± 0.17 nM
Structure (SMILES): CN(C)c1ccc(CN(CC(=O)NO)S(=O)(=O)c2ccc(OCC3CC3)cc2)cc1 [Example 2, 2-[(4-Cyclopropylmethoxy-benzenesulfonyl)-(4-dimethylamino-benzyl-amino]-N-hydroxy-acetamide HCl salt]
